64 compounds from the supplement of paper PMC3493320 can be followed below.

Where “and” joins values, the source holds several entries; their conditions need not be identical. Identical values can stand only once.

This assay concerns NCI-H295R. Briefly: maximal response (efficacy) relative to DMSO (0%) and doxorubicin (-100%); higher = less growth inhibition. The following applies: 48 h.
Take `O=C2N(CCC8)[C@]8([H])[C@@](O[C@](C)1N[C@]([C@@H]6C=C([C@]7([H])N(C)C6)C5=C4C(C7)=CNC4=CC=C5)=O)(O)N([C@H]2CC3=CC=CC=C3)C1=O.O=C%10N(CCC%16)[C@]%16([H])[C@@](O[C@](C)9N[C@]([C@@H]%14C=C([C@]%15([H])N(C)C%14)C%13=C%12C(C%15)=CNC%12=CC=C%13)=O)(O)N([C@H]%10CC%11=CC=CC=C%11)C9=O.O[C@@H](C(O)=O)[C@@H](O)C([O-])=O`: the maximal response is -31.1%.

Consider `O=c1[nH]c2ccccc2n1CCCN1CCC(n2c(=O)[nH]c3cc(Cl)ccc32)CC1`, for which the maximal response was -25.4%.

Consider `CN[C@H]1CCc2cc(OC)c(OC)c(OC)c2-c2ccc(OC)c(=O)cc21`, for which the maximal response is -53.1%.

As to `O=C3C1=C(NC(N)=N3)NC=C1CCC2=CC=C(C(N[C@H]([C@@]([O-])=O)CCC([O-])=O)=O)C=C2.[Na+].[Na+]`, the maximal response is -56.4%.

Take `COc1c(C)c2c(c(O)c1C/C=C(\C)CCC(=O)O)C(=O)OC2`: the maximal response was -29.5%.

`CN(C)CCCN1c2ccccc2CCc2ccccc21`: the maximal response is -21%.

In the case of `CC(=O)[O][Co][N]1/C2=C(/C)C3=N/C(=C\C4=NC(=C(/C)C5=N[C@H]([C@H](CC(N)=O)[C@@]5(C)CCC(=O)NCC(C)OP(=O)(O)O[C@H]5[C@@H](O)[C@@H](n6cnc7cc(C)c(C)cc76)O[C@@H]5CO)[C@@]1(C)[C@@](C)(CC(N)=O)[C@@H]2CCC(N)=O)/[C@@H](CCC(N)=O)C4(C)C)[C@@H](CCC(N)=O)[C@]3(C)CC(N)=O` (some centres undefined), the maximal response is -34.1%.

Consider `N[C@@H](Cc1cc(I)c(Oc2cc(I)c(O)c(I)c2)c(I)c1)C(=O)O`, for which the maximal response was -25.6%.

`S=C1SCN(Cc2ccccc2)CN1Cc1ccccc1`: the maximal response is -29.7%.

Take `CCc1cccc(N(C)C(=N)Nc2cccc3ccccc23)c1.Cl`: the maximal response is -29.2%.

With `O=C(NC(=O)c1c(F)cccc1F)Nc1ccc(Cl)c(Oc2ncc(C(F)(F)F)cc2Cl)c1`, the maximal response was -39.7%.

For `COc1cc(C)c(Cc2cnc(N)nc2N)cc1OC`, the maximal response was -57.4%.

`O=C(CCCCCCC(=O)Nc1ccccc1)NO`: the maximal response is -37.1%.

As for `COc1cc(/C=C/C(=O)O[C@H]2CC[C@]34C[C@]35CC[C@]3(C)[C@@H]([C@H](C)CCC=C(C)C)CC[C@@]3(C)[C@@H]5CC[C@H]4C2(C)C)ccc1O`, the maximal response was -40.3%.

For the compound `CCC(O)c1ccccc1` (centres undefined), the maximal response is -25.2%.

On to `CCNC(=O)N1CCN(CCCC(c2ccc(F)cc2)c2ccc(F)cc2)CC1.Cl`, for which the maximal response was -34.2%.

Regarding `CN1C(=O)C(O)N=C(c2ccccc2)c2cc(Cl)ccc21` (centres undefined), the maximal response was -27.8%.

As to `CN1CCC(CN2c3ccccc3Sc3ccccc32)C1.Cl` (centres undefined), the maximal response was -26.6%.

In the case of `O=C(Nc1ccc(Cl)cc1)Nc1ccc(Cl)c(Cl)c1`, the maximal response was -41.7%.

For the compound `Oc1ccc(Cl)c2cccnc12`, the maximal response is -33.2%.

On to `Cc1cc2nc3c(=O)[nH]c(=O)nc-3n(C[C@H](O)[C@H](O)[C@H](O)COP(=O)([O-])OP(=O)([O-])OC[C@H]3O[C@@H](n4cnc5c(N)ncnc54)[C@H](O)[C@@H]3O)c2cc1C.[Na+].[Na+]`, for which the maximal response came to 22%.

On to `CC(C)OC(=O)Nc1ccc2[nH]c(-c3cscn3)nc2c1`, for which the maximal response was -56.3%.

Take `O=C(C4=CC(OC)=C(C(OC)=C4)OC)O[C@@H]1C[C@@]3([H])[C@@](C[C@](N5C3)([H])C2=C(CC5)C(C=CC=C6)=C6N2)([H])[C@H]([C@](OC)=O)[C@H]1OC`: the maximal response is -51.8%.

Take `COc1cc(C=C2CCCC(=Cc3ccc(O)c(OC)c3)C2=O)ccc1O`: the maximal response was -130%.

Regarding `O=S(=O)([O-])c1ccc2c(/N=N/c3ccc(S(=O)(=O)[O-])c4ccccc34)c(O)c(S(=O)(=O)[O-])cc2c1.[Na+].[Na+].[Na+]`, the maximal response is -50.2%.

As for `CCCCN(CCCC)CC(O)c1cc(Cl)cc2c1-c1ccc(Cl)cc1/C2=C/c1ccc(Cl)cc1` (centres undefined), the maximal response was -31.5%.

For `CC1(C)C3=C(C=CC=C3)/C(C2=C1C=CC=C2)=C/CCN(C)C.Cl`, the maximal response is -21.5%.

`Cl.Cl.OCCN1CCN(CCCN2c3ccccc3C=Cc3ccccc32)CC1`: the maximal response was -69.8%.

In the case of `COc1cc2c(cc1OC)C(C(C(=O)N(CCc1ccc(OC)c(OC)c1OC)CCc1ccc(OC)c(OC)c1OC)c1ccccc1)=NCC2.Cl` (centres undefined), the maximal response is -28.4%.

`N\1(C(N(C(CC)C)/N=C/1)=O)c7ccc(N2CCN(CC2)c6ccc(OC[C@@H]5O[C@](c3c(cc(cc3)Cl)Cl)(Cn4ncnc4)OC5)cc6)cc7` (some centres undefined): the maximal response is -23.1%.

`Cl.O=C(C[C@@H]1NCCC[C@H]1O)Cn1cnc2cc(Br)c(Cl)cc2c1=O`: the maximal response is -28.3%.

`O=C(O)Cc1cc(I)c(Oc2ccc(O)c(I)c2)c(I)c1`: the maximal response was -31.4%.

As to `O=[C@@](OC)[C@](C(N3)=C4C2=C3C=CC=C2)([C@@]5=CC([C@]69[C@]8([H])[C@](C=CCN8CC9)(CC)[C@@H](OC(C)=O)[C@](O)([C@](OC)=O)[C@@]([H])6N7C=O)=C7C=C5OC)C[C@H]1C[C@](CC)(O)CN(CC4)C1`, the maximal response was -44.6%.

As to `O[C@@]1(CC)C[C@H](C2)C[C@@]([C@]7=C(OC)C=C6N(C)[C@]5([H])[C@@](C6=C7)(CC9)[C@](N9CC=C8)([H])[C@]8(CC)[C@@H](OC(C)=O)[C@@](O)5[C@@](OC)=O)([C@](OC)=O)C(NC4=CC=CC=C34)=C3CCN2C1.O=S(O)(O)=O`, the maximal response was -54.7% and -52.9%.

For the compound `CNCC/C=C2/C1=C(CCC3=C2C=CC=C3)C=CC=C1.Cl`, the maximal response is -38.9%.

With `COC(=O)C1=C(C)NC(C)=C(C(=O)OC(C)(C)CN(C)CCC(c2ccccc2)c2ccccc2)C1c1cccc([N+](=O)[O-])c1.Cl` (centres undefined), the maximal response was -45.6%.

With `F\C1=C\N(C(=O)NC1=O)[C@H]2C[C@H](O)[C@@H](CO)O2`, the maximal response was -37.6%.

For the compound `O=C(N/N=C/c1ccccc1O)c1ccncc1`, the maximal response is -33.1%.

On to `CCCc1nc2c(C)cc(-c3nc4ccccc4n3C)cc2n1Cc1ccc(-c2ccccc2C(=O)O)cc1`, for which the maximal response is -22.7%.

With `O[C@@]3(C#C)CC[C@H]2[C@@H]4CC/C1=C/c5oncc5C[C@]1(C)[C@H]4CC[C@@]23C`, the maximal response is -27.4%.

For `O=C(O)c1cc(O)c2c(c1)[C@H]([C@H]1c3cc(C(=O)O)cc(O)c3C(=O)c3c(O[C@@H]4O[C@H](CO)[C@@H](O)[C@H](O)[C@H]4O)cccc31)c1cccc(O[C@@H]3O[C@H](CO)[C@@H](O)[C@H](O)[C@H]3O)c1C2=O`, the maximal response was -34.5%.

For `COCc1c(C(C)C)nc(C(C)C)c(/C=C/[C@@H](O)C[C@@H](O)CC(=O)[O-])c1-c1ccc(F)cc1.[Na+]`, the maximal response is -23.2%.

For `COCCOC(=O)C1=C(C)NC(C)=C(C(=O)OC/C=C/c2ccccc2)C1c1cccc([N+](=O)[O-])c1` (centres undefined), the maximal response is -49.9%.

As for `Cc1c(C(=O)O)c(O)cc2c1C(=O)c1c(O)c([C@@H]3O[C@H](CO)[C@@H](O)[C@H](O)[C@H]3O)c(O)c(O)c1C2=O`, the maximal response was -50.2%.

Regarding `CCC/C=C/C=C/C(=O)O[C@H]1/C(=C/C(=O)OC)C[C@H]2C[C@H]([C@@H](C)O)OC(=O)C[C@H](O)C[C@@H]3C[C@H](OC(C)=O)C(C)(C)[C@](O)(C[C@@H]4C/C(=C/C(=O)OC)C[C@H](/C=C/C(C)(C)[C@]1(O)O2)O4)O3`, the maximal response is -41.4%.

For the compound `CCC(NC(C)C)C(O)c1ccc(O)c(O)c1.CS(=O)(=O)O` (centres undefined), the maximal response was -36%.

Regarding `CC(C)(COP(=O)([O-])OP(=O)([O-])OC[C@H]1O[C@@H](n2cnc3c(N)ncnc32)[C@H](O)[C@@H]1OP(=O)([O-])O)C(O)C(=O)NCCC(=O)NCCS.O.O.[Li+].[Li+].[Li+]` (some centres undefined), the maximal response is 33%.

As for `CCc1oc2ccccc2c1C(=O)c1cc(Br)c(O)c(Br)c1`, the maximal response was -59.3%.

Regarding `CN(CC=CC#CC(C)(C)C)Cc1cccc2ccccc12`, the maximal response is -34.4%.

On to `CCN(CC)C(=S)SSC(=S)N(CC)CC`, for which the maximal response was -27.3%.

Consider `COC(=O)C1=C(C)NC(C)=C(C(=O)OCC(C)C)C1c1ccccc1[N+](=O)[O-]` (centres undefined), for which the maximal response is -32.8%.

For the compound `O=C(N)[C@@](C2=CC=CC=C2)([C@H]3CN(CCC4=CC(CCO5)=C5C=C4)CC3)C1=CC=CC=C1.Br`, the maximal response was -31.7%.

For `[O-][n+]1ccccc1SSc1cccc[n+]1[O-]`, the maximal response was -23.5%.

On to `CC[C@@]1([C@@H]2O[C@@H]([C@H]3O[C@@](O)(CO)[C@H](C)C[C@@H]3C)C[C@@H]2C)CC[C@H]([C@]2(C)CC[C@]3(C[C@H](O)[C@@H](C)[C@@H]([C@@H](C)[C@@H](OC)C(C)C(=O)[O-])O3)O2)O1.[Na+]` (some centres undefined), for which the maximal response is -50.4%.

`O=C1C(C(O)=C4C([C@@H](O[C@@H]5O[C@@H](C)[C@@H](O[C@@H]6CCCCO6)[C@@H](N)C5)C[C@@]([C@](CO)=O)(O)C4)=C3O)=C3C(C2=C1C=CC=C2OC)=O`: the maximal response was -43%.

As to `Cl.Cl/C(=C\n1cncn1)c1ccc(Cl)cc1Cl`, the maximal response was -28.8%.

`NC(=O)N/N=C/c1ccc([N+](=O)[O-])o1`: the maximal response was -20.7%.

As to `O=C2O[C@](C#CC3CC3)([C@](F)(F)F)C1=CC(Cl)=CC=C1N2`, the maximal response was -38%.

Consider `O=C1c2cccc(O)c2C(=O)c2c(O)cccc21`, for which the maximal response was -35.8%.

Take `CCOC(=O)Oc1c(OC)cc(cc1OC)C(=O)O[C@@H]4C[C@@H]5CN6CC\C3=C(\Nc2cc(OC)ccc23)[C@H]6C[C@@H]5[C@H](C(=O)OC)[C@H]4OC`: the maximal response is -30.6%.

Regarding `O=C1c2ccccc2C(=O)C1c1ccccc1`, the maximal response was -24.9%.

As for `Nc1ncnc2c1ncn2[C@@H]1O[C@H](COP(=O)(O)O)[C@@H](O)[C@@H]1O`, the maximal response is 22%.

For the compound `COC(=O)Nc1nc2cc(Sc3ccccc3)ccc2[nH]1`, the maximal response is -54.1%.

`CC(C)[C@H](N)C(=O)OCC(CO)OCn1cnc2c(=O)nc(N)[nH]c21.Cl` (some centres undefined): the maximal response is -28.1%.
